{"source": "patent US20160185682A1", "about": "“NITRIFICATION INHIBITOR COMPOSITIONS AND METHODS FOR PREPARING THE SAME” (Dow AgroSciences LLC, priority 2014, published 2016)", "key": {"[1]": {"assay_type": "physicochemical", "description": "(§1) In some embodiments of the present disclosure, in order to measure the diffusion of nitrification inhibitors through volatilization barriers and, therefore, provide diffusion constants to estimate the ultimate loss of nitrification inhibitors to volatilization, Fourier transform infrared spectroscopy operating in attenuated total reflectance mode (“ATR-FTIR”) can be employed to probe diffusion of nitrification inhibitors, such as, for example, nitrapyrin, through polymeric materials.\n(§2) A Nicolet 4700 Fourier transform infrared spectrometer (“FTIR”) with SCFGG using attenuated total reflectance (“ATR”) accessory (“Specac”) was utilized in the studies presented herein. Nitrapyrin technical grade manufactured by Dow AgroSciences LLC was used in some of the experiments presented herein. […]\n(§3) Kollidon VA64 was purchased as a vinyl pyrrolidone/vinyl acetate 60/40 copolymer from Sigma Aldrich. […] Film thickness was measured using a Dektak profilometer (Veeco). […]\n(§4) Films were allowed to equilibrate in the FTIR chamber for thirty minutes before the experiments were started. […] A single-beam spectrum was acquired of the film for use as a background spectrum, after which absorbance spectra were continuously recorded throughout the experiment. Peak heights were determined using a macro and data were fit according to the model as described below. […]"}, "[2]": {"test": "ATR-FTIR diffusion of nitrapyrin through polymer film, diffusion constant fitted by Fick's second law model", "assay_type": "physicochemical", "description": "as §1, §2, §3, §4"}, "[3]": {"conditions": "at 230 Celsius; cited from earlier work"}}, "data": [{"smiles": "Clc1cccc(C(Cl)(Cl)Cl)n1", "note": "[nitrapyrin, 2-chloro-6-(trichloromethyl)pyridine]", "values": [{"measurement": "diffusion constant for nitrapyrin through polymer film (printed as 'partition coefficient')", "setting": "[1]", "value": "10^−3-10^−2 μm^2/s"}, {"measurement": "diffusion profile of nitrapyrin through film", "setting": "[2]; Kollidon VA64 film, 30 μm, curve not well-fitting a standard diffusion model", "value": "slow through the film before it rapidly equilibrates"}, {"measurement": "diffusion constant", "setting": "[2]; Polyvinyl pyrollidone (K90) film", "value": "0.1-1 μm^2/s"}, {"measurement": "vapor pressure", "setting": "[3]", "value": "2.8×10^−3 mm Hg"}]}]}
